Assay results reported in publication PMC11052071, “Novel JAK Inhibitors to Reduce Graft-Versus-Host Disease after Allogeneic Hematopoietic Cell Transplantation in a Preclinical Mouse Model” (Molecules, 2024).

What was measured:
GvHD = assay: Preclinical mouse model of allo-HCT (GvHD); format: in vivo, Balb/c recipient mice; details: for % of recipient and donor BM-derived APCs in spleens / % of CD80-expressing donor-derived APCs in spleens / % of Tregs in the spleens: 20 mg/kg s.c., day 6 after allo-HCT; for % of recipient and donor BM-derived APCs in spleens: vs control
Excerpt: To determine the potential of WU4 and WU8 in preventing GvHD, we performed allo-HCT in which 5 × 10^6 T cell-depleted bone marrow (TCD-BM; CD45.1+) and 5 × 10^5 splenic pan T cells (CD45.2+) obtained from B6 mice were transplanted into lethally irradiated (900 cGy on day −1) Balb/c allogeneic recipient mice on day 0. […]. […] Among monocyte subsets, we only considered classical (LyG6^−CD11b^+Ly6C^high) and intermediate monocytes (LyG6^−CD11b^+Ly6C^middle) as APCs, excluding non-classical monocytes (LyG6^−CD11b^+Ly6C^low) due to their anti-inflammatory function, which downregulates antigen presentation during inflammation. […]
Figure 5 In vivo administration of WU4 and WU8 reduces GvHD by increasing % of Tregs while suppressing % of APCs and costimulatory proteins on APCs after allo-HCT. Allo-HCT was performed as follows: 5 × 10^6 TCD-BM (CD45.1+) and 5 × 10^5 splenic T cells (CD45.2+) obtained from B6 mice were transplanted on day 0 into lethally irradiated (900 cGy on day −1) Balb/c allogeneic recipient mice. TCD-BM-only group served as a no-GvHD control. […] (A,B) The mice were monitored for survival and GvHD signs. (C–F) Whole splenocytes were analyzed for % of Tregs, recipient/BM-derived APCs, and CD80-expressing APCs on day 6 after allo-HCT. LyG6^−CD11b^+Ly6C^high and LyG6^−CD11b^+Ly6C^middle served as classical and intermediate monocyte subsets. NT: neutrophils. * p < 0.05, ** p < 0.01, and *** p < 0.001. All error bars are represented as mean ± standard deviation.
Allo-HCT was performed as previously described. Briefly, BALB/c mice were used as recipients and received 9 Gy total body irradiation on day −1, then were transplanted with 5 × 10^6 T cell-depleted bone marrow (TCD-BM) cells from B6 (CD45.1+) mice along with 0.5 × 10^6 splenic T cells from B6 (CD45.2+) mice on day 0. Mouse TCD-BM and splenic T cells were prepared using an EasySep mouse CD90.2 positive selection kit II and an EasySep mouse T cell isolation kit ([…] Technologies, Cambridge, MA, USA), respectively.
GvHD clinical scores were assessed twice per week by a scoring system incorporating five clinical criteria: weight loss (diarrhea scored 1 regardless of weight change), posture (hunching), mobility, fur texture, and skin integrity, as previously described. Individual mice were scored from 0 to 2 for each criterion and were sacrificed with GvHD scores of 6 or above, following our approved animal protocol.
T cells from in vitro primary murine T cell culture, fresh peripheral blood, or whole splenocytes were analyzed according to cell surface and intracellular markers. Surface markers were directly stained with flow antibodies for 20 min at 4 °C. For intracellular staining (FOXP3 and T-bet), cells were fixed and permeabilized after surface staining using appropriate buffers (One-step intracellular nuclear protein staining protocol, eBioscience, San Diego, CA, USA) and stained with flow antibodies. The antibodies used for flow cytometric analyses for mouse cells were as follows: FOXP3, T-BET, and CD183 (eBioscience, San Diego, CA, USA); CD3, H2-Kb, H2-Kd, CD4, B220, CD11b, CD11c, Ly6C, and DEC205 (BioLegend, San Diego, CA); and CD8, CD45.2, CD80, and Ly6G (BD Pharmingen, San Jose, CA, USA). All cells were run on a ZE5 Cell Analyzer (BD Biosciences, Mountain View, CA, USA) or Attune® NxT (Thermofisher Scientific, Waltham, MA, USA) and analyzed with the FlowJo software, version 10.9.0 (FlowJo LLC., Ashland, OR, USA).

[1] = system: phosphorylation of STAT1, STAT3, and STAT5; assay: STAT phosphorylation in primary human T cells (Western blotting); format: cell-based; details: starvation 1 h, stimulated with 10 ng/mL IFN-α
Excerpt: Subsequently, we examined the ability of WU4 and WU8 to inhibit JAK signaling by measuring the levels of phosphorylation of STATs, downstream transcription factors of JAK signaling. […] This inhibitory capacity of WU4 and WU8 correlates with their IC50 values (Figure 1J) and the ability to reduce CXCR3 expression (Figure 3). We then decided to further investigate WU4 and WU8 as potent novel JAK inhibitors for the prevention of GvHD in our preclinical mouse model of allo-HCT.
Figure 4 Effect of WU4 and WU8 on the inhibition of JAK signaling in primary human T cells. STAT phosphorylation was determined as the indicator of JAK signaling. Primary human T cells were obtained from the peripheral blood of healthy donors. […] The phosphorylation of STATs was measured by Western blotting. Total […] and GAPDH served as loading controls.

[2] = Mouse PK after subcutaneous injection; format: in vivo; details: 2 mg/kg s.c., CD-1 mice, time points up to 6 h; WU derivatives compared to BARI
T-bet = T-bet expression in activated primary murine T cells (flow cytometry); format: cell-based, B6 mice; details: anti-CD3/CD28 activation beads, 3 days, dose-dependent
Excerpt: WU6 is a derivative of WU4, incorporating a trifluoromethane sulfonamide for WU6 instead of an ethyl sulfonamide for WU4. […]. […] Subsequently, we examined the effect of WU6 on the expression of CXCR3 and T-bet (the master transcription factor of Th1 and cytotoxic T cell differentiation) in primary murine T cells.
Figure 8 Effect of WU6 on the expression of CXCR3 and T-bet in vitro and GvHD in mouse model of allo-HCT. (A–D) Primary T cells were isolated from B6 and treated with WU6 at indicated doses for 3 days in the presence of anti-CD3/CD28 activation beads. After 3 days, the expression of CXCR3 (A,B) and T-bet (C,D) in the CD4 and CD8 was determined by flow cytometry. Survival rate and (E) clinical GvHD scores (F) of mice treated with WU6 after allo-HCT. (G,H) % BM-derived B cells (B220+) and T cells (CD3+) were examined in the peripheral blood on day 27 after allo-HCT. * p < 0.05, ** p < 0.01, and *** p < 0.001. All error bars are represented as mean ± standard deviation.
T cells from in vitro primary murine T cell culture, fresh peripheral blood, or whole splenocytes were analyzed according to cell surface and intracellular markers. […] All cells were run on a ZE5 Cell Analyzer (BD Biosciences, Mountain View, CA, USA) or Attune® NxT (Thermofisher Scientific, Waltham, MA, USA) and analyzed with the FlowJo software, version 10.9.0 (FlowJo LLC., Ashland, OR, USA). […]

[3] = 4 mg/kg s.c. once daily for 3 weeks from day 3, vs vehicle control
[4] = 20 mg/kg s.c. once daily for 3 weeks from day 3, vs vehicle control
[5] = dose not given, compared to WU4

SMILES	clinical GvHD scores (GvHD; [3])	overall survival (GvHD; [3])	clinical GvHD scores (GvHD; [4])	overall survival (GvHD; [4])	% of recipient and donor BM-derived APCs in spleens (GvHD)	% of CD80-expressing donor-derived APCs in spleens (GvHD; vs vehicle control)	% of Tregs in the spleens (GvHD; vs vehicle control)	phosphorylation of STATs [1]	plasma drug concentration (mouse PK) [2]	clinical GvHD scores (GvHD; [5])	overall survival (GvHD; [5])	percentage of donor-BM-derived B and T cells in the PB (GvHD; dose not given, day 27 after allo-HCT, compared to WU4)	T-bet expression in CD4 and CD8 T cells (T-bet)
N#CCC1(n2cc(-c3ncnc4[nH]ccc34)cn2)CCS(=O)(=O)CC1 [WU8]	less GvHD	mild trend towards improved survival	improved clinical GvHD scores	significantly increased overall survival	reduced the % of both the residual recipient and donor BM-derived APCs	decreased	trend towards higher frequencies of Tregs	inhibit the phosphorylation of STAT1, STAT3, and STAT5	significant increase in plasma drug concentration at 2 h post-dose	–	–	–	–
N#CCC1(n2cc(-c3ncnc4[nH]ccc34)cn2)CC2(CC(NS(=O)(=O)C(F)(F)F)C2)C1 (centres unmarked) [WU6]	–	–	–	–	–	–	–	–	–	significantly less clinical GvHD scores	improved overall survival	increased percentage of donor-BM-derived B and T cells	significantly downregulated
CCS(=O)(=O)NC1CC2(C1)CC(CC#N)(n1cc(-c3ncnc4[nH]ccc34)cn1)C2 (centres unmarked) [WU4]	–	–	did not significantly improve GvHD	failed to provide any survival benefits	reducing the % of donor-derived CD11b+ APCs	reducing the % of donor-derived CD11b+ APCs and CD80-expressing B cells	significantly increasing the % of Tregs	inhibit the phosphorylation of STAT1, STAT3, and STAT5	comparable PK to BARI throughout all time points	–	–	–	–
